Laboratory results taken from patent publication US4129565A, “Isocarbostyril derivatives” (priority 1975, dated 1978).
Counter-ions that a name gives are not always drawn.

Legend:
[1] = test system: reserpine-treated anaesthetized rats; experiment: Intrinsic heart stimulating effect in reserpine-treated anaesthetized rats; assay type: in vivo, rat
Experimental: Intrinsic heart stimulating effects of the compounds of the invention were also determined using reserpine-treated anaesthetized rats.

[2] = molecular target: T1, isolated guinea-pig atria (β1) (Cavia porcellus, UniProt H0W3H1); experiment: β-adrenergic blocking effect: antagonism of isoproterenol stimulation in isolated guinea-pig atria
T1 construct: isolated guinea-pig atria; from tissue; host or cells: isolated guinea-pig atria

[3] = molecular target: T2, isolated guinea-pig tracheas (β2) (Cavia porcellus, UniProt Q8K4Z4); experiment: β-adrenergic blocking effect: antagonism of isoproterenol stimulation in isolated guinea-pig tracheas
T2 construct: isolated guinea-pig tracheas; from tissue; host or cells: isolated guinea-pig tracheas

in vivo = conditions: mouse, iv
Experimental: With respect to acute toxicity of the isocarbostyril derivatives of the general formula (I), experiments were carried out to obtain the LD50 values of the compounds.

T1 sequence (H0W3H1 1-470): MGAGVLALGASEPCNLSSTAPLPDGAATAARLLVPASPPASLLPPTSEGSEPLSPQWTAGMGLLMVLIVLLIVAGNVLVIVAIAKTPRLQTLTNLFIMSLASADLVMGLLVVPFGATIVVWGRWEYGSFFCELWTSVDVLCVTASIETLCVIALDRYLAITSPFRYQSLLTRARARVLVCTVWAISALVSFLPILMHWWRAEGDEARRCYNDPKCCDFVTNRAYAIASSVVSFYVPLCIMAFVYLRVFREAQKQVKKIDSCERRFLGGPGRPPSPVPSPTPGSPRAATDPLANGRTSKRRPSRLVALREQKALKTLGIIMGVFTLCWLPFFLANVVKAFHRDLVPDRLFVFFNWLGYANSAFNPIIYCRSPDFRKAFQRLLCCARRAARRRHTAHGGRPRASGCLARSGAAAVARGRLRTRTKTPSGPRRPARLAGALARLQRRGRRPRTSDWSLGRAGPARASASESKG
T2 sequence (Q8K4Z4 whole entry): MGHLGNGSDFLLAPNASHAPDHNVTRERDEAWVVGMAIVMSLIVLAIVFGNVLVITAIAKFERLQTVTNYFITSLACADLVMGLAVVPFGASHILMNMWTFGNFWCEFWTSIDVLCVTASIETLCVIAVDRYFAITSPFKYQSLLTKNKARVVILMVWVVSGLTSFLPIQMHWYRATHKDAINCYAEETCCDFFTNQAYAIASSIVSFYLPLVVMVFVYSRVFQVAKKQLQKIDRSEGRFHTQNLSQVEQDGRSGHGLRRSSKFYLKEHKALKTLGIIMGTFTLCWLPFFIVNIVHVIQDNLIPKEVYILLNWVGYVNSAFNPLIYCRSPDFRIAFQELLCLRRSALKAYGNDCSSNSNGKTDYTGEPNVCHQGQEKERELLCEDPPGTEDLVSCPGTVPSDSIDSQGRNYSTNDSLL

Row | Structure (SMILES) | Intrinsic heart stimulation [1] | β-adrenergic blocking activity (Relative potency) atria (β1) [2] | β-adrenergic blocking activity (Relative potency) trachea (β2) [3] | LD50 (in vivo) [mg/kg]
1 | CC(C)NCC(O)COc1cn(C)c(=O)c2ccccc12 (stereo not drawn) [Example 1, 4-(3-isopropylamino-2-hydroxy)propoxy-2-methylisocarbostyrilhydrochloride] | 0 | 3.2 | 0.44 | 105
2 | Cn1cc(OCC(O)CNC(C)(C)C)c2ccccc2c1=O (stereo not drawn) [Example 2, 4-(3-tert.-butylamino-2-hydroxy)propoxy-2-methylisocarbostyril hydrochloride] | 0 | 2.5 | 0.52 | 119
3 | CCC(C)NCC(O)COc1cn(C)c(=O)c2ccccc12 (stereo not drawn) [Example 3, 4-(3-sec.-butylamino-2-hydroxy)propoxy-2-methyl isocarbostyril hydrochloride] | 0 | 4.5 | 0.05 | 120
4 | Cn1cc(OCC(O)CNCc2ccccc2)c2ccccc2c1=O (stereo not drawn) [Example 7, 4-(3-benzylamino-2-hydroxy)propoxy-2-methylisocarbostyril hydrochloride] | – | – | – | 120
5 | Cn1cc(OCC(O)CNC2CCCCC2)c2ccccc2c1=O (stereo not drawn) [Example 8, 4-(3-cyclohexylamino-2-hydroxy)propoxy-2-methylisocarbostyril hydrochlorid] | – | – | – | 80
6 | Cn1cc(OCC(O)CN2CCCCC2)c2ccccc2c1=O (stereo not drawn) [Example 9, 4-(3-piperidino-2-hydroxy)propoxy-2-methylisocarbostyril hydrochloride] | – | – | – | 200
7 | CCCCN(C)CC(O)COc1cn(C)c(=O)c2ccccc12 (stereo not drawn) [Example 11, 4-(3-N-methyl-butylamino-2-hydroxy) propoxy-2-methyl isocarbostyril] | – | – | – | 143
8 | CN1CCN(CC(O)COc2cn(C)c(=O)c3ccccc23)CC1 (stereo not drawn) [Example 12, 4-(3-N-methylpiperazino-2-hydroxy) propoxy-2-methyl isocarbostyril] | – | – | – | 270
9 | CC[N+](C)(CC)CC(O)COc1cn(C)c(=O)c2ccccc12 (stereo not drawn) [Example 13, 4-(3-diethylamino-2-hydroxy)propoxy-2-methyl isocarbostyril methoiodide] | – | – | – | 15.2
10 | CC(C)[N+](C)(C)CC(O)COc1cn(C)c(=O)c2ccccc12 (stereo not drawn) [Example 14] | – | – | – | < 20
11 | CC[N+](C)(C)CC(O)COc1cn(C)c(=O)c2ccccc12 (stereo not drawn) [Example 15, 4-(3-dimethylamino-2-hydroxy)propoxy-2-methyl isocarbostyril ethoiodide] | – | – | – | 16.7
12 | CC(C)NCC(O)COc1cccc2ccccc12 (stereo not drawn) [Propranolol, propranolol, reference compound] | 0 | – | – | –
13 | CCCNCC(O)COc1cn(C)c(=O)c2ccccc12 (stereo not drawn) [R3=H, R4=n-C3 H7] | – | – | – | 115
14 | CCCCNCC(O)COc1cn(C)c(=O)c2ccccc12 (stereo not drawn) [R3=H, R4=n-C4 H9] | – | – | – | 105
15 | CCCCCCNCC(O)COc1cn(C)c(=O)c2ccccc12 (stereo not drawn) [R3=H, R4=n-C6 H13] | – | – | – | 69
